The values below come from patent US20100292091A1, “MARA FAMILY HELIX-TURN-HELIX DOMAINS AND THEIR METHODS OF USE” (Trustees of Tufts College, priority 1998, published 2010).

The subject of assay [1] is E. coli BL21. Put plainly: Antibiotic gradient plate susceptibility of E. coli transformants with plasmids bearing E. coli mar genes. Format: cell-based, Escherichia coli. An excerpt: PCR oligonucleotide primers were used to prepare a wild-type marA amplicon from E. coli AG100 (A. M. George, et al, J. Bacteriol., 1983, 155:531-540) chromosomal DNA, based on the annotated sequence (S. P. Cohen, et al. J. Bacteriol., 1993, 175:1484-1492). The oligonucleotide primers corresponded with nucleotide positions 1893 to 1910 and 2265 to 2282 and contained terminal EcoRI restriction enzyme sites to allow insertion of marA in frame with the hsp60 mycobacterial heat shock promoter resident on the E. coli-Mycobacterium shuttle plasmid pMV261 (W. R. Jacobs, et al. Microbiol. Immunol., 1990, 155:153-160). […] These mutant marA genes were ligated to pMV261 and pET13a for testing in M. smegmatis and E. coli, respectively. Plasmids were introduced into E. coli and M. smegmatis mc^2155 by electroporation with a Gene Pulser transfection apparatus (Bio-Rad. Richmond, Calif.) and selected on kanamycin (10 or 25 μg/ml).
To obtain support for the notion that the resistance phenotype was a direct result of MarA activity in the cell, insertional mutants targeted to the first helix-turn-helix domain (HTH1) (M. N. Alekshun, et al. Chemother, 41:2067-2075) of the MarA protein were constructed. […] A double-stranded synthetic oligonucleotide with compatible ends was ligated to the NheI sites to produce two distinct insertional mutants interrupting each of the two putative alpha-helical regions (FIG. 1). These mutated genes were cloned into pMV261, as described above, for susceptibility testing in M. smegmatis at 37° C. They were also expressed from the isopropyl-β-D-thiogalactopyranoside (IPTG)-regulated T7 promoter resident on plasmid pET13a for testing in E. coli BL21 (Studier et al. 1990. Methods Enzymol. 185:60). Insertional inactivation of MarA at either helix A or helix B of the first HTH abolished the multidrug resistance phenotype in both E. coli and M. smegmatis the (Table 3 and 4).

Assay [2] has as its system M. smegmatis mc^2155. Format: cell-based, Mycobacterium smegmatis.
Where [3] appears, read: transformant pEC10 (pET13::marA), same gradients.
[4] abbreviates: transformant pET13a (vector), gradient (µg/ml) CML 2.0, TET 1.0, AMP 3.0, NAL 1.0.

Where a name gives a salt, the structure may show the parent alone.

Regarding `CC1(C)S[C@@H]2[C@H](NC(=O)[C@H](N)c3ccccc3)C(=O)N2[C@H]1C(=O)O` [AMP, ampicillin], the “% Gowth in antibiotic gradient” value in assay [1] (setting [3]) was found to be 11 ± 2.0%; in assay [1] (setting [4]) it was 2 ± 1.1%.

For the compound `O=C(N[C@H](CO)[C@H](O)c1ccc([N+](=O)[O-])cc1)C(Cl)Cl` [CML, chloramphenicol], the “% Gowth in antibiotic gradient” value in assay [1] (setting [3]) worked out at 100%. Besides, the “% Gowth in antibiotic gradient” value in assay [1] (setting [4]) is recorded as 20 ± 1.1%. Also, in assay [2], the “fold increase of resistance in the presence of marA” value (“fold increase of resistance” for short) is given as “two-fold” and the “resistance compared to the microbe with vector alone” value (“resistance compared to the microbe” below) was “increased resistance”.

Turning to `CC[C@@H](CO)NCCN[C@@H](CC)CO` [ETM, ethambutol], in assay [2], the “fold increase of resistance” value was found to be 1.5 fold and the “resistance compared to the microbe” value was “increased resistance”.

Turning to `NNC(=O)c1ccncc1` [INH, isoniazid], in assay [2], the “fold increase of resistance” value is 2.5 fold and the “resistance compared to the microbe” value was “increased resistance”.

In the case of `CCn1cc(C(=O)O)c(=O)c2ccc(C)nc21` [NAL, nalidixic acid], the “% Gowth in antibiotic gradient” value in assay [1] (setting [3]) was determined as 100%; in assay [1] (setting [4]), 17 ± 0.8%. Moreover, in assay [2], the “change in susceptibility in the presence of marA” value (shortened to “change in susceptibility”) is “Little if any change in susceptibility”.

On to `CCn1cc(C(=O)O)c(=O)c2cc(F)c(N3CCNCC3)cc21` [Nor, norfloxacin], for which the “change in susceptibility” value in assay [2] is recorded as “some increased susceptibility”.

Consider `CO[C@H]1/C=C/O[C@@]2(C)Oc3c(C)c(O)c4c(O)c(c(/C=N/N5CCN(C)CC5)c(O)c4c3C2=O)NC(=O)/C(C)=C\C=C\[C@H](C)[C@H](O)[C@@H](C)[C@@H](O)[C@@H](C)[C@H](OC(C)=O)[C@@H]1C` [RIF, rifampin], for which, in assay [2], the “resistance compared to the microbe” value is reported as “Increased resistance” and the “resistance in the presence of vector alone” value is listed as “increased”.

On to `CN(C)[C@@H]1C(O)=C(C(N)=O)C(=O)[C@@]2(O)C(O)=C3C(=O)c4c(O)cccc4[C@@](C)(O)[C@H]3C[C@@H]12` [TET, tetracycline], for which the “% Gowth in antibiotic gradient” value is recorded as 100% in assay [1] (setting [3]), 33 ± 1.0% in assay [1] (setting [4]) and 33 ± 1.4% in assay [1] ({}).

As to `COS(=O)(=O)[O-].C[n+]1c2ccccc2nc2ccccc21` [phenazine methosulfate], the “change in susceptibility” value in assay [2] is recorded as “Little if any change in susceptibility”.

On to `C[C@@H]1CN(c2c(F)c(N)c3c(=O)c(C(=O)O)cn(C4CC4)c3c2F)C[C@H](C)N1` [sparfloxacin], for which, in assay [2], the “change in susceptibility” value is “Little if any change in susceptibility”.

For the compound `[H]/N=C(/N)N[C@H]1[C@H](O)[C@@H](O)[C@H](O[C@@H]2O[C@@H](C)[C@](O)(C=O)[C@H]2O[C@@H]2O[C@@H](CO)[C@H](O)[C@@H](O)[C@@H]2NC)[C@@H](N/C(N)=N\[H])[C@@H]1O` [streptomycin, streptomycin sulfate], in assay [2], the “change in susceptibility” value was “some increased susceptibility”.
